Test results taken from ChEMBL document CHEMBL3507680, “University of Dundee, Gates Library screen for HepG2 cell viability”.

experiment: Human HepG2 cell viability assay in 384 well format; format: toxicity, cell-based; set-up: dose 125 nL, time 70.5 hour; concentration not given beside the values; conditions: HepG2 cells, read-out: Inhibition

Compound | cytotoxicity at 70.5 h
COc1c(C)cnc(CNC(=O)c2cnc3onc(C)c3c2)c1C | 12.5%
Cc1ccsc1C(=O)N1CCC(c2nccn2Cc2ccncc2)CC1 | -9.49%
COc1cc(CN2CCC3(CC2)[C@H](O)C[C@@H]3OCCO)ccc1F | -8.63%
Cc1csc(-c2cccc(NC(=O)NCC(C)(C)C(N)=O)c2)n1 | -0.0997%
Cc1nc(CN2CCCC2c2noc(C3CC3)n2)oc1C (centres undefined) | -9.58%
CCCc1cc(C(=O)N2CCC3(CC2)CN(CCN(C)C)C(=O)O3)no1 | -0.0862%
CCn1nc2c(cc1=O)CN(Cc1coc(-c3ccccc3)n1)CC2 | -3.27%
CN1CCN(C2COC3(CCN(c4ccc(C#N)cc4)CC3)C2)CC1 (centres undefined) | -6.07%
CCOc1ccc(Cl)cc1CCNC(=O)Cn1ccccc1=O | -3.35%
O=C(C1CCOC1)N1CCC2(CC1)CN(c1ncccn1)CCO2 (centres undefined) | 22.2%
O=C(Nc1cnn(-c2ccccc2Cl)c1)NC1CCC(O)CC1 (centres undefined) | 23.9%
NC(=O)N1CCCC(C(=O)N2CCc3c(nc(CC4CC4)[nH]c3=O)C2)C1 (centres undefined) | -6.32%
CC(C)Oc1cccc(C(O)CNC(=O)CCc2ccncc2)c1 (centres undefined) | -5.8%
COc1cccc(-n2nc(C(C)=O)c(C(C)=O)c2C)c1 | -15.4%
Cc1nnc2n1CCN(C(=O)c1cn(-c3ccccc3Cl)nn1)C2 | -9.21%
O=C(Nc1nncs1)N1CCC(CCc2ccc(O)cc2)CC1 | -14.7%
O=C(CN1CCCCCC1=O)NCC1CCN(c2ccccc2)C1 (centres undefined) | -5.56%
CC(=O)Nc1ncc(S(=O)(=O)N2CCC(C)CC2)s1 | -8.58%
CCc1ccc(CNC(=O)CCNS(=O)(=O)c2cn(C)c(C)n2)s1 | -7.93%
COc1ccc(SC(C)C(=O)N2CCC(C(=O)N3CCCC3)CC2)cc1 (centres undefined) | -5.49%
CCc1ncnc2c1CCN(CC(=O)N(C)C)CC2 | -1.77%
CCOCC1CN(CCOCc2ccccc2)Cc2c1cnn2C (centres undefined) | -3.18%
Cc1ccc(N2CC3(COCCN(Cc4cnn(C)c4)C3)OCC2=O)s1 (centres undefined) | 0.295%

Compound | cytotoxicity at 70.5 h
COc1ccc(OC)c(CCNc2ncc(S(N)(=O)=O)s2)c1 | 0.207%
Cc1cccc(CNC(Cc2ccsc2)c2nccs2)n1 (centres undefined) | 0.0464%
CC(Cn1cccn1)NC(=O)N1CCN(Cc2cccnc2)CC1 (centres undefined) | -7.03%
CC(C)COCCC(=O)Nc1cc(-n2nnnc2C2CC2)ccc1F | -8.14%
CCC(CC)C(=O)NCc1cnn(CC)c1 | -13.4%
CN(C)C(=O)CC1CC2(CCN(c3ncccn3)CC2)c2ccccc21 (centres undefined) | -0.293%
O=C1CCCCN1CCc1nc(C2(c3ccc(F)cc3)CCOC2)no1 (centres undefined) | 12.7%
CN(C(=O)c1ccccn1)c1nnc(C2CCOC2)s1 (centres undefined) | -7.71%
CCc1cnc(CNc2ccc(C(=O)N3CCCC(C)C3)cc2C)o1 (centres undefined) | -10.4%
CCS(=O)(=O)NC(C(=O)NC)c1ccc(F)c(F)c1 (centres undefined) | 2.45%
COc1cc(CNCCC(N)=O)c2c(c1)CC(C)O2 (centres undefined) | -0.966%
CN1CCCC(c2nc3c([nH]2)CC(C)(C)CNC3=O)C1 (centres undefined) | 13.5%
CCN(CC)C(=O)CN(C)C1CCc2ccccc21 (centres undefined) | -3.62%
CN(Cc1ccon1)CC1CCOc2ccccc2C1 (centres undefined) | -8.84%
COc1cc(C(=O)Nc2nc(C)no2)cc(Cl)c1OC | -3.51%
CCOc1ccc(Cl)cc1CNCCCn1ccnc1 | 23.2%
Cc1cc(C)n(CC2CN(Cc3cscn3)CCO2)n1 (centres undefined) | -4.76%
Cc1ncc(CNc2cnccc2CO)s1 | 6.67%
O=C(NC1CCCCC1)N1CCC(N2Cc3ncccc3C2=O)CC1 | -13.7%
COc1ccccc1NC(=O)CSC1CCc2ccccc2NC1=O (centres undefined) | -10.1%
CC(C)N1CCC(N2CCC(C(=O)N(C)C)CC2)CC1 | 1.65%
NC(=O)NCC1CCCCN1C(=O)c1cccc(C(F)(F)F)c1 (centres undefined) | -3.78%
COCCCS(=O)(=O)N1CCN(C(=O)CO)CC1 | -0.333%

Compound | cytotoxicity at 70.5 h
CC(=O)NC1CCCN(C(=O)NCc2cccnc2N(C)C)C1 (centres undefined) | 4.39%
CCOC(=O)N(C)C1CCN(Cc2csc(C)n2)CC1 | 2.22%
Cc1occc1C(=O)NCC1OCCc2cn(C)nc21 (centres undefined) | -3.82%
O=C(c1ccncc1)N1CCn2c(nnc2-c2ccccc2)C1 | -6.68%
O=C(CCC1CCN(C2CSCCSC2)CC1)NCC1CCCO1 (centres undefined) | -7.42%
NC(=O)NCC(=O)N1C[C@H]2CC[C@@H]1CN(C1Cc3ccccc3C1)C2 | -10.1%
CCOc1ccc(NC(=O)NCc2cccnc2OCC)cc1 | -9.72%
COc1cc(CCC(=O)NC(C)C)ccc1OCC(F)(F)F | -18.5%
CC1CCN(c2ccc(=O)n(CC(=O)N(C)Cc3ccccc3)n2)CC1 | 16.3%
CCN(Cc1noc(CC(C)C)n1)Cc1ccccc1C | -1.58%
Cc1ccc(-c2nc(CC(=O)NCC(C)N3CCOCC3)cs2)o1 (centres undefined) | -3.4%
Cn1cc(NC(=O)N2CCN(Cc3cscn3)CC2)ccc1=O | -9.04%
CN1Cc2ccccc2CC1C(=O)N1CCN(CCS(C)(=O)=O)CC1 (centres undefined) | 5.5%
O=C(c1ncn2c1CNS(=O)(=O)c1ccccc1-2)N1CCCCC1 | -2.38%
CCC(CNC(=O)c1cccc(S(=O)(=O)NC)c1)N1CCCC1 (centres undefined) | -2.78%
O=C1C(NCc2cccc(O)c2)CCN1Cc1ccccc1 (centres undefined) | -0.773%
CC(=O)N1CCCCC1c1ncnn1-c1ccc2nc(C)sc2c1 (centres undefined) | -4.05%
Cc1cnc(-c2nc(O)c3c(n2)CN(C(=O)C2CC2)CC3)cn1 | -4.33%
Cc1ccc(C(=O)NCc2cccnc2N(C)C)s1 | -10.9%
COc1ccc(F)cc1CSCC(=O)N(C)CCC#N | 0.901%
CCn1c(C)nnc1CN(C)C1CCN(Cc2cnc(C)cn2)C1 (centres undefined) | -0.885%
Cc1cc(C(=O)NCc2cccnc2N2CCCC(O)C2)c(C)o1 (centres undefined) | -8.63%
c1cc2c(cc1Cn1cc(C3CCCNC3)nn1)CCCO2 (centres undefined) | -15.2%

Compound | cytotoxicity at 70.5 h
CC(C)c1nn(C)c(N(C)C)c1CNC(C)c1ccc2c(c1)OCO2 (centres undefined) | 20%
CN1CCN(C(=O)c2ccc3c(c2)nc(N2CCOCC2)n3C)CC1=O | -5.46%
Cc1cc(C(=O)N2CC[C@H](N3CCN(C)CC3)[C@H](CCCO)C2)n(C)n1 | -6.07%
CCC(CNS(=O)(=O)c1c[nH]cn1)Oc1ccccc1F (centres undefined) | -2.67%
CNC(=O)C1CN(c2cc(C)ncn2)CCN1Cc1ccccc1 (centres undefined) | 21.6%
CC(C)NC(=O)c1cc(-c2ccc(S(C)(=O)=O)cc2)c2cnn(C)c2n1 | -0.443%
CC(=O)N1CCCN(C(=O)NCCCc2cn[nH]c2C)CC1 | -2.68%
CC(C)CC(N)C1=N/C(=C2\N=CN=N2)NO1 (centres undefined) | 29.4%
Cc1cccc(NC(=O)[C@@H]2CCCN2Cc2ccccc2C#N)n1 | -10.3%
COc1ccccc1OCCC(=O)N1CCCC1Cn1cc(C)cn1 (centres undefined) | -6.74%
COCC(=O)N1CC[C@@H](N2CCN(C)CC2)[C@@H]1Cc1ccccc1 | 9.62%
O=C(Cn1cc(C2CC2)nn1)NC(c1cc(F)ccc1F)C1CC1 (centres undefined) | -5.37%
COc1ccc(C(C)N2CCC(CO)CC2)cc1Cl (centres undefined) | -2.59%
CN(Cc1noc(C2CC2)n1)C1CCN(Cc2ncc[nH]2)C1 (centres undefined) | 12.2%
CSc1ccccc1C(=O)C1CCCN(Cc2ccccn2)C1 (centres undefined) | -2.76%
O=C(NCCN1CCCC1)Nc1cc(C(=O)N2CCOCC2)ccc1Cl | -8.22%
CS(=O)(=O)N1CCN(c2cc(-n3cccc3)ncn2)CC1 | -4.46%
CCc1nc2c(c(NCc3nc(-c4cccnc4)no3)n1)CCNCC2 | -2.89%
CCCc1nc(Cn2c(=O)n(C)c3ccccc32)no1 | -6.48%
Cc1noc(C)c1C(=O)N1CCCC(c2nccn2Cc2cscn2)C1 (centres undefined) | -5.18%
c1cnn(C[C@@H]2C[C@@H]3CN(CC4CC4)CC[C@@H]3N2c2nccs2)c1 | 0.124%
O=C(Nc1cccnc1)[C@H]1COC[C@H]2CN(C3CCCC3)C[C@H]21 | 3.49%
CCc1nsc(NC2CC(=O)N(C(C)(C)C)C2)n1 (centres undefined) | -8.26%

Compound | cytotoxicity at 70.5 h
O=C(N1CCOCC1)N1C[C@@H]2OCCN(C(=O)c3ccco3)[C@@H]2C1 | -1.55%
CC(=O)N1CCCC1C(=O)NCCOc1ccc(C(C)C)cc1 (centres undefined) | -1.19%
Cc1cc(C(=O)N2C[C@@H](CN3CCCCC3)[C@@H](CO)C2)ccc1O | -5.69%
c1nc2c(c(N3CCCC(Cn4cncn4)C3)n1)CCC2 (centres undefined) | -7.36%
O=C(c1cnccn1)N1C[C@@H]2CC[C@H](C1)N(C(=O)Cc1ccsc1)C2 | -1.28%
CS(=O)(=O)N1CC2(CCN(CC3CC3)C2)Cc2ccccc21 (centres undefined) | -6.8%
N#Cc1c(Cl)nsc1N1CCN(CC2CCCCC2)CC1 | 0.793%
O=C(N1CCOCC1)N1CCCC(c2ncncc2-c2ccncc2)C1 (centres undefined) | -9.55%
CC(C)Cc1noc(CN2CCC(C(=O)NCC3CCCO3)CC2)n1 (centres undefined) | 10.6%
CC(C)n1cc(CN2CCCN(C(=O)CC3CCCO3)CC2)cn1 (centres undefined) | -4.54%
Cn1c(C(=O)NC2CCCC2)nc2c1CCN(Cc1ccccc1)C2 | -5.5%
O=c1ccc(-c2cccs2)nn1CN1CCN(c2ccccn2)CC1 | -23.6%
CC(C)c1noc(-c2ccc(NCc3noc(C(C)C)n3)nc2)n1 | -5.44%
Cn1nc(C2CCCNC2)c2c(C(=O)NC3CC3)cc(C3CC3)nc21 (centres undefined) | 13.4%
NC(=O)Cn1cnc2nc3n(c2c1=O)CCC3 | 16.5%
Cc1[nH]ncc1C(=O)N1CCOC(c2cccs2)C1 (centres undefined) | 25.7%
Cn1cc(C(=O)NCc2ccc(N3CCCC3)nc2)ccc1=O | -8.81%
O=C(Cc1ccc2c(c1)OCCO2)NC1CCCC1 | 10.8%
CC1(C)Cc2nc(C(C)(C)C)ncc2C(NC(=O)Cc2nnn[nH]2)C1 (centres undefined) | 52.3%
Cc1cc(-c2ccc(=O)n(CCNC(=O)C3CC3)n2)c(C)o1 | 0.992%
CC(C)c1nc(CN(C)Cc2ccc(O)c(Cl)c2)cs1 | -13.5%
NC(=O)CN1C(=O)CO[C@H]2CN(Cc3ccc(Cl)cc3)C[C@H]21 | 13%
